In patent publication US6403831B1, “Substituted benzylidene indenyl formamides, acetamides and propionamides” (Cell Pathways, Inc., priority 1996, dated 2002):
Marks after values point to notes of the source that are not given here.

Columns and labels:
[1] = system: human colon carcinoma cell line, SW-480; test: Growth inhibition, Sulforhodamine B (SRB) protein binding assay; format: cell-based; conditions: SW-480 cell line, six days continuous exposure
Method: These compounds were assayed for their growth inhibitory activity on the human colon carcinoma cell line, SW-480 obtained from ATCC (Rockville, Md.), to ascertain the degree of growth inhibition. Growth inhibition of this cell line is indicative of a benefit on precancerous lesions and neoplasms. The cell line and growth assay employed for these experiments are well characterized, and are used to evaluate the anti-neoplastic properties of NSAIDs. The assay is used by the United States National Cancer Institute in its screening program for new anti-cancer drugs.
Drug stock solutions were made in 100% DMSO then diluted with RPMI media for cell culture testing. All drug solutions were prepared fresh on the day of testing. The cultured cells were obtained at passage #99 and grown in RPMI media supplemented with 5% fetal calf serum, and 2 mM glutamine, 100 U/ml penicillin, 100 U/ml streptomycin, and 0.25 μg/ml amphotericin. The cultures were maintained in a humidified atmosphere of 95% air and 5% CO2 at 37° C. The cultures were passaged at preconfluent densities using a solution of 0.05% trypsin and 0.53 mM EDTA. Cells were plated at 1000 cells/well for 96 well flat-bottom microtiter plates.
Tumor cell growth inhibition was assessed using the Sulforhodamine B (SRB) protein binding assay. In this assay, tumor cells were plated in 96-well plates and treated with drug-containing media for six days (continuous exposure). For each plate, 6 wells were designated as no treatment controls, six wells as vehicle (0.1% DMSO) controls, and the remaining wells for drug dilutions with three wells per drug concentration. At the end of the exposure period, the cells were fixed and stained with sulforhodamine B, a protein binding dye. The dye was then solubilized, and the optical density of the resulting solution was determined on a 96-well plate reader. The mean dye intensity of the treated wells was then divided by the mean dye intensity in the control wells (6 wells of each) to determine the effect of the drug on the cells. Dye intensity is proportional to the number of cells or amount of protein per well. The resultant “percent inhibition” value then represents the degree of growth inhibition caused by the drug.
For each experiment, an IC50 value was determined and used for comparative purposes. This value is equivalent to the concentration of drug needed to inhibit tumor cell growth by 50%. IC50 values were obtained graphically by connecting the mean values for each drug concentration tested. Each experiment included at least three wells per drug concentration. Concentration was plotted on a log scale on the X-axis.

[2] = molecular target: T1, COX I (Ovis aries, UniProt P05979); test: Cyclooxygenase (COX) inhibition, purified COX; format: biochemical; conditions: purified COX from ram seminal vesicles; for COX I % Inhibition (100 μM): 100 μM test compound, arachidonic acid 100 μM; for COX I % Inhibition (values marked *): values marked *: 1000 μM test compound
T1 construct: The COX was purified form ram seminal vesicles; from tissue; host or cells: ram seminal vesicles
T1 sequence (P05979 25-600): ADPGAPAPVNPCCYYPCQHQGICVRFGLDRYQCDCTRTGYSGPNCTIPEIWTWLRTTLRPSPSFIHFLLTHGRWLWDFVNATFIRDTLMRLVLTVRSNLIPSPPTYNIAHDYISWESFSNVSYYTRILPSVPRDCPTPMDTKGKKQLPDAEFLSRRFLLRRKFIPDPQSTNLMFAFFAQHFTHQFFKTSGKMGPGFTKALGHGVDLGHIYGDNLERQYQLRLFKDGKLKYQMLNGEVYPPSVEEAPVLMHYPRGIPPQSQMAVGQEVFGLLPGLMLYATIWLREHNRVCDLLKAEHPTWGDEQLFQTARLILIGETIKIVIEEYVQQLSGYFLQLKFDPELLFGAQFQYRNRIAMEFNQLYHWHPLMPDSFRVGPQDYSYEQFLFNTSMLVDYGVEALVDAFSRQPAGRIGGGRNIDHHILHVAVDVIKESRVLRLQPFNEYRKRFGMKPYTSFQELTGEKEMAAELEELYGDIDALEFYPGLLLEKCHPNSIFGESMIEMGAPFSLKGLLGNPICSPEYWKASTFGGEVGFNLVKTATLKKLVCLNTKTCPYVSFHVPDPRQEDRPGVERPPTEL
Method: Compounds of this invention, as well as a positive control, sulindac sulfide were to determine whether they inhibited the production of cyclooxygenase (see Table 5 below).
COX catalyzes the formation of prostaglandins and thromboxane by the oxidative metabolism of arachidonic acid. The compounds of this invention were evaluated for inhibitory effects on purified COX. The COX was purified form ram seminal vesicles, as described by Boopathy, R. and Balasubramanian, J. 239:371-377, 1988. COX activity was assayed as described by Evans, A. T., et al., “Actions of cannabis constituents on enzymes of arachidonate metabolism anti-flammatory potential,” Biochem. Pharmacol., 36:2035-2037, 1987. Briefly, purified COX was incubated with arachidonic acid (100 μM) for 2.0 min at 37° C. in the presence or absence of test compounds. The assay was terminated buy the addition of TCA, and COX activity was determined by absorbance at 530 nm.

[3] = system: SW-480 colon adenocarcinoma cells; test: Apoptosis by DNA fragmentation (Cell Death Detection ELISA plus); format: cell-based, human; conditions: SW-480 cells, 48 hrs; for EC50: by software or estimated from effective concentration range; for DNA Fragmentation FS (100 μM): fold stimulation FS=ODmax/ODveh
Method: Apoptosis was also measured based on the amount of fragmented DNA contained in cell lysates. Briefly, SW-480 colon adenocarcinoma cells were plated in 96-well microtitre plates (“MTP”) at a density of 10K cells/well in 180 μl and incubated for 24 hrs. Cells were then treated with 20 μl aliquots of appropriately diluted compound, and allowed to incubate for an additional 48 hrs.
After the incubation, samples were prepared according to the following steps. The MTP was centrifuged (15 min., 1000 rpm) and the supernatant was carefully removed by fast inversion of the MTP. The cell pellents in each well were then resuspended in ^200 μl lysis buffer and incubated for 45 min. at room temperature to lyse the cells. The lysates were then centrifuged (15 min., 1000 rpm) and 20 μl aliquots of the supernatant (=cytoplasmic fraction) were transferred into the streptavidin coated MTP for analysis. Care was taken not to shake the lysed pellets in the MTP (=cell nucleii containing high molecular weight, unfragmented DNA). Samples were analyzed immediately, because storage at 4 C or −20 C reduces the ELISA-signals.
Samples were then processed according to a DNA fragmentation assay protocol, and dose-response curves were generated based on optical density readings. Quantification of DNA was done by a commercially available photometric enzyme-immunoassay manufactured by Mannheim-Boehringer under the name “Cell Death Detection ELISA^plus”. The assay is based on a quantitative sandwich-enzyme-immunoassay-principle using mouse monoclonal antibodies directed against DNA and histones, respectively. This allows the specific determination of mono and oligonucleosomes in the cytoplasmatic fraction of cell lysates. In brief, the assay procedure is as follows. The sample (cell-lysate, serum, culture-supernatant etc.) is placed into a streptavidin-coated MTP. Subsequently, a mixture of anti-histone-biotin and anti-DNA-POD are added and incubated for 2 hours. During the incubation period, the anti-histone antibody binds to the histone-component of the nucleosomes and simultaneously fixes the immunocomplex to the streptavidin-coated MTP via its biotinylation. Additionally, the anti-DNA-POD antibody reacts with the DNA component of the nucleosomes. After removal of unbound antibodies by a washing step, the amount of nucleosomes is quantified by the POD retained in the immunocomplex. POD is determined photometrically with ABTS® (2,2′-Azino-di[3-ethylbenzthiazolin-sulfonat])* as substrate.
Fold stimulation (FS=ODmax/ODveh), an indicator of apoptotic response, was determined for each compound tested. EC50 values were determined either specifically by data analysis software, or by estimates based on the effective concentration range of each compound (ECR=min. effective dose-min. dose to peak effect). These FS and EC50 values for the tested compounds are listed above in Table 6.

[4] = system: HT-29 human colon carcinoma cells; test: Apoptosis by morphology (acridine orange/ethidium bromide, condensed chromatin); format: cell-based; conditions: HT-29 cells
Method: Apoptosis was measured using an assay of cell death based on morphological characteristics of apoptotic cells (i.e., condensed chromatin). Drug preparation and cell culture conditions were the same as for the SRB assay described above, except that HT-29 human colon carcinoma cells were employed/Confluent cultures were established in 12.5 cm^2 flasks by plating 0.5×10^6 cells/flask. The cultures were assayed for apoptosis by fluorescent microscopy following labeling with acridine orange and ethidium bromide. Floating and attached cells were collected by trypsinization and washed three times in PBS. One ml aliquots were centrifuged (3 g). The pellet was resuspended in 25 μl media and 1 μl of a dye mixture containing 100 μg/ml acridine orange and 100 μg/ml ethidium bromide prepared in PBS and mixed gently. Ten μl of mixture was placed on a microscope slide and covered with a 22 mm^2 coverslip and examined under 40×dry objectives using epillumination and filter combination.
An observer blinded to the identity of the treatments scored at least 100 cells per sample. Apoptotic cells were identified by nuclear condensation of chromatin stained by the acridine orange or ethidium bromide.

IC50 [1] [µM] | COX I % Inhibition (100 μM) [2] [%] | COX I % Inhibition (values marked *) [2] | Structure (SMILES) | EC50 [3] [µM] | DNA Fragmentation FS (100 μM) [3] | Morphology % Apoptotic Cells (1 μM) [4] [%]
4.5 | <25 |  | COc1cc(/C=C2/C(C)=C(CC(=O)Nc3ccccc3)c3cc(F)ccc32)cc(OC)c1OC [Example 22, (Z)-5-fluoro-2-methyl-1-(3,4,5-trimethoxybenzylidene)-3-(N-phenyl)-indenylacetamide] | 5 | 2.3 | 37
5.2 |  | 30* % | CCOC(=O)CN(Cc1ccccc1)C(=O)CC1=C(C)/C(=C/c2cc(OC)c(OC)c(OC)c2)c2ccc(F)cc21 [Example 31, (Z)-5-fluoro-2-methyl-1-(3,4,5 trimethoxybenzylidene)-3-(N-benzyl-N-glycinylethyl ester)-indenylacetamide] | > 10 | <2 | 30
3 |  | 72* % | COc1cc(/C=C2/C(C)=C(CC(=O)N(CCN(C)C)Cc3ccccc3)c3cc(F)ccc32)cc(OC)c1OC [Example 36, (Z)-5-fluoro-2-methyl-1-(3,4,5-trimethoxybenzylidene)-3-(N-benzyl-N-2-dimethylaminoethyl)-indenylacetamide] | 0.01 | 5.3 | 22

Second part, the molecule before the results:

Structure (SMILES) | IC50 [1] [µM] | COX I % Inhibition (100 μM) [2] [%] | COX I % Inhibition (values marked *) [2] | EC50 [3] [µM] | DNA Fragmentation FS (100 μM) [3] | Morphology % Apoptotic Cells (1 μM) [4] [%]
COc1ccc(CNC(=O)CC2=C(C)/C(=C/c3cc(OC)c(OC)c(OC)c3)c3ccc(F)cc32)c(OC)c1 [Example 19, (Z)-5-fluoro-2-methyl-1-(3,4,5-trimethoxybenzylidene)-3-(N-2,4-dimethoxybenzyl)-indenylacetamide] | 4.5 | 33.3 |  | 7 | 2 | <20
C#CCNC(=O)CC1=C(C)/C(=C/c2cc(OC)c(OC)c(OC)c2)c2ccc(F)cc21 [Example 27, (Z)-5-fluoro-2-methyl-1-(3,4,5-trimethoxybenzylidene)-3-(N-propargyl)-indenylacetamide] | 0.22 | <25 |  | 0.7 | 4 | 71
C=CCNC(=O)CC1=C(C)/C(=C/c2cc(OC)c(OC)c(OC)c2)c2ccc(F)cc21 [Example 28, (Z)-5-fluoro-2-methyl-1-(3,4,5-trimethoxybenzylidene)-3-(N-allyl)-indenylacetamide] | 0.37 | <25 |  | 0.23 | 2.3 | 35
COc1cc(/C=C2/C(C)=C(CC(=O)NCc3ccccc3F)c3cc(F)ccc32)cc(OC)c1OC [Example 32, (Z)-5-fluoro-2-methyl-1-(3,4,5-trimethoxybenzylidene)-3-(N-2-fluorobenzyl)-indenylacetamide] | 2.2 |  | 58* % | 0.32 | 2.5 | 55
COc1cc(/C=C2/C(C)=C(CC(=O)NCc3ccccc3Br)c3cc(F)ccc32)cc(OC)c1OC [Example 33, (Z)-5-fluoro-2-methyl-1-(3,4,5-trimethoxybenzylidene)-3-(N-2-bromobenzyl)-indenylacetamide] | 1.8 |  | 49* % | 4 | 3.7 | 28
COc1cc(/C=C2/C(C)=C(CC(=O)NCc3ccccc3N)c3cc(F)ccc32)cc(OC)c1OC [Example 34, (Z)-5-fluoro-2-methyl-1-(3,4,5-trimethoxybenzylidene)-3-(N-2-aminobenzyl)-indenylacetamide] | 6.2 |  | 31* % | > 10 | 2.1 | 45
COc1ccc(CN(C(=O)CC2=C(C)/C(=C/c3cc(OC)c(OC)c(OC)c3)c3ccc(F)cc32)c2ccccn2)cc1 [Example 35, (Z)-5-fluoro-2-methyl-1-(3,4,5-trimethoxybenzylidene)-3-(N-4-methoxybenzyl-N-(2-pyridinyl))-indenylacetamide] | > 10 |  | 37* % | > 10 | <2 | 40
